A word on the ED50: it is the midpoint of the dose-response relation.

Counter-ions that a name gives are not always drawn. Like-named read-outs stand apart in the source and are kept apart here.

The results in this text go back to patent US4668690A, “1,2,3,4,4a,9b-hexahydro-4a-aminoalkyldibenzofurans useful as analgesics, anticonvulsants or antidepressants” (Hoechst Roussel Pharmaceuticals Inc., priority 1985, dated 1987).

In assay [1] the test system is phenyl-para-quinone induced writhing. Nature of the assay: phenyl-para-quinone writhing assay in mice (analgesia). The assay is classed as in vivo. The settings on record: for inhibition in vivo at 25 mg/kg: 25 mg/kg subcutaneous; for ED50: read-out: ED50, inhibition of phenyl-para-quinone induced writhing. From the text: The compounds of the invention are primarily useful as analgesic, anticonvulsant and antidepressant agents. […] Exptl. Biol. Med., 95, 729 (1953)]. Listed below in Table I is the analgesic effect of some of the compounds of the invention, expressed as percent inhibition of phenyl-para-quinone induced writhing.
(In general: In writhing tests, fewer writhes than in controls are read as antinociception.)

The subject of assay [2] is ptosis of tetrabenazine-induced depression. Nature of the assay: inhibition of tetrabenazine-induced depression (ptosis) in mice (antidepressant). The class given is in vivo.
For assay [3], the system named is supra maximal electroshock (extensor tonus). Put plainly: supra maximal electroshock assay (anticonvulsant). The assay is classed as in vivo, male mice (Charles River, CD-1). The settings on record: for ED50: Mus musculus, sc, read-out: ED50, anticonvulsant effect (supra maximal electroshock). (In general: The maximal electroshock test induces tonic seizures with an electrical stimulus.)

Setting [4] is: subcutaneous, mice, 50% inhibition.
[5] abbreviates: Mus musculus, sc, subcutaneous, mice, 50% inhibition.

Turning to `CN(C)CC[C@@]12CCCC[C@@H]1c1ccccc1O2.Cl` (relative stereo) [cis-4a-(2-Dimethylaminoethyl)-1,2,3,4,4a,9b-Hexahydrodibenzofuran hydrochloride], the inhibition in vivo at 25 mg/kg in assay [1] (Mus musculus, sc, mice) came to 67%. Moreover, the “% Inhibition of the ptosis of tetrabenazine-induced depression” value in assay [2] (20.0 mg/kg intraperitoneal) is on record as 70%. Also, the ED50 in assay [3] (setting [4]) was 22.4 mg/kg. As to `CN(C)CCC=C1c2ccccc2CCc2ccccc21` [Amitriptyline, reference compound], the “% Inhibition of the ptosis of tetrabenazine-induced depression” value in assay [2] (2.0 mg/kg intraperitoneal, standard) is recorded as 50%. In assay [1] (Mus musculus, sc, mice), `CN(CCCc1ccccc1)CCC[C@@]12CCCC[C@@H]1c1ccccc1O2` (relative stereo) [cis-1,2,3,4,4a,9b-Hexahydro-4a-[3-(N-(3-phenylpropyl)-N-methyl)aminopropyl]dibenzofuran oxalate hydrate] had an inhibition in vivo at 25 mg/kg of 37%. On the same count and under the same terms, the result for `c1ccc2c(c1)O[C@]1(CCCN3CCCCC3)CCCC[C@H]21` (relative stereo) [cis-1,2,3,4,4a,9b-hexahydro-4a-(3-piperidinopropyl)dibenzofuran oxalate] reads 64%; that for `CN(CCc1ccccc1)CC[C@@]12CCCC[C@@H]1c1ccccc1O2` (relative stereo) [cis-1,2,3,4,4a,9b-Hexahydro-4a-[2-(N-methyl-N-phenethyl)aminoethyl]dibenzofuran hydrochloride], 63%. As to `CCC(=O)O[C@](Cc1ccccc1)(c1ccccc1)[C@H](C)CN(C)C` [propoxyphene, reference compound], in assay [1] (Mus musculus, sc, read-out: % Inhibition of phenyl-para-quinone induced writhing), the inhibition in vivo at 3.9 mg/kg is 50%. Regarding `CC(C)=CCN(C)CC[C@@]12CCCC[C@@H]1c1ccccc1O2` (relative stereo) [cis-1,2,3,4,4a,9b-Hexahydro-4a-[2-(N-(3-methyl-2-butenyl)-N-methyl)aminoethyl]dibenzofuran oxalate], in assay [2] (20.0 mg/kg intraperitoneal), the “% Inhibition of the ptosis of tetrabenazine-induced depression” value was determined as 77%. Take `CNC[C@@]12CCCC[C@@H]1c1ccccc1O2.Cl` (relative stereo) [cis-1,2,3,4,4a,9b-Hexahydro-4a-methylaminomethyldibenzofuran hydrochloride]: the ED50 in assay [1] (setting [5]) came out at 25.8 mg/kg; in assay [3] (setting [4]), 22.5 mg/kg. In assay [1] (Mus musculus, sc, mice), `CNCCC[C@@]12CCCC[C@@H]1c1ccccc1O2` (relative stereo) [cis-1,2,3,4,4a,9b-Hexahydro-4a-(3-methylaminopropyl)dibenzofuran] yielded an inhibition in vivo at 25 mg/kg of 58%. The ED50 in assay [2] (Mus musculus, ip, intraperitoneal, 50% inhibition) came out at 5.9 mg/kg; in assay [3] (setting [4]), 27.7 mg/kg.

For the compound `CN(CCC[C@@]12CCCC[C@@H]1c1ccccc1O2)CCc1ccccc1.Cl` (relative stereo) [cis-1,2,3,4,4a,9b-Hexahydro-4a-[3-(N-methyl-N-phenethylamino)propyl]dibenzofuran hydrochloride], the ED50 in assay [1] (setting [5]) was 20.8 mg/kg. The “% Inhibition, anticonvulsant effect (supra maximal electroshock)” value (shortened to “% Inhibition, anticonvulsant effect”) in assay [3] (25 mg/kg subcutaneous, mice) came to 50%. For the compound `CN(C)CCC[C@@]12CCCC[C@@H]1c1ccccc1O2.Cl` (relative stereo) [cis-4a-(Dimethylaminopropyl)-1,2,3,4,4a,9b-hexahydrodibenzofuran hydrochloride], the ED50 in assay [1] (setting [5]) was 12.2 mg/kg; in assay [3] (setting [4]) it was 28.1 mg/kg. Consider `CN(C)C[C@@]12CCCC[C@@H]1c1ccccc1O2.Cl` (relative stereo) [Cis-1,2,3,4,4a,9b-hexahydro-4a-dimethylaminomethyldibenzofuran hydrochloride], for which, in assay [1] (setting [5]), the ED50 came to 21.7 mg/kg. On to `CNC1=Nc2ccc(Cl)cc2C(c2ccccc2)=[N+]([O-])C1` [Chlorodiazepoxide, reference compound], for which the “% Inhibition, anticonvulsant effect” value in assay [3] (8.0 mg/kg subcutaneous, mice, standard) worked out at 50%. Take “cis-1,2,3,4,4a,9b-Hexahydro-4a-[2-[N-(3-phenylpropyl)-N-methylamino]ethyl]dibenzofuran oxalate hemihydrate”: the “ED50, inhibition of phenyl-para-quinone induced writhing” value in assay [1] (setting [4]) is listed as 7.3 mg/kg. As to `CNCC[C@@]12CCCC[C@@H]1c1ccccc1O2.Cl` (relative stereo) [cis-1,2,3,4,4a,9b-Hexahydro-4a-(2-methylaminoethyl)dibenzofuran hydrochloride], the ED50 in assay [1] (Mus musculus, sc) was found to be 16.2 mg/kg; in assay [3], 41.7 mg/kg. Further, in assay [2] (20.0 mg/kg intraperitoneal), the “% Inhibition of the ptosis of tetrabenazine-induced depression” value is given as 60%. `CN1C(=O)CN=C(c2ccccc2)c2cc(Cl)ccc21` [Diazepam, reference compound]: the “% Inhibition, anticonvulsant effect” value in assay [3] (1.7 mg/kg subcutaneous, mice, standard) came to 50%. Compound `CN(CCCOc1ccccc1)CC[C@@]12CCCC[C@@H]1c1ccccc1O2` (relative stereo) [Cis-1,2,3,4,4a,9b-hexahydro-4a-[2-{N-methyl-N-(3-phenoxypropyl)}aminoethyl]dibenzofuran oxalate] displayed an inhibition in vivo at 25 mg/kg in assay [1] (Mus musculus, sc, mice) of 65%.

Turning to `CN(CCC[C@@]12CCCC[C@@H]1c1ccccc1O2)Cc1ccco1` (relative stereo) [cis-1,2,3,4,4a,9b-Hexahydro-4a-[3-(N-methyl-N-furfuryl)aminopropyl]dibenzofuran oxalate hydrate], in assay [1] (Mus musculus, sc, mice), the inhibition in vivo at 25 mg/kg worked out at 61%.
